The compounds below were run against Factor D (Homo sapiens (Human), UniProt P00746) (assay: biochemical). Details: read-out: IC50.
Assay type: biochemical

Chain of Factor D (P00746 26-253): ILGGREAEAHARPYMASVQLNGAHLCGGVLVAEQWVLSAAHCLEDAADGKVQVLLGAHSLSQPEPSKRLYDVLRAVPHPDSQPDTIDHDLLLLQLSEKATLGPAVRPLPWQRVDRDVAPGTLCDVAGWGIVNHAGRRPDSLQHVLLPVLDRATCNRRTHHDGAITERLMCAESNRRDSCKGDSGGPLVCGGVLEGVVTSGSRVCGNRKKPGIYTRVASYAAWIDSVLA

Row | Structure (SMILES) | IC50 [µM]
1 | NC(=O)n1cc(NC(=O)N2C[C@@H](N)C[C@H]2C(=O)NC2CCOc3ccc(Cl)cc32)c2ccccc21 (stereo partly drawn) [Example 80, (2S,4S)-4-Amino-pyrrolidine-1,2-dicarboxylic acid 1-[(1-carbamoyl-1H-indol-3-yl)-amide] 2-[(6-chloro-chroman-4-yl)-amide]] | 15
2 | NC(=O)n1cc(NC(=O)N2C[C@@H](N)C[C@H]2C(=O)NCCc2ccccc2)c2ccccc21 [Example 81, (2S,4S)-4-Amino-pyrrolidine-1,2-dicarboxylic acid 1-[(1-carbamoyl-1H-indol-3-yl)-amide] 2-(phenethyl-amide)] | 4.75
3 | NC(=O)n1cc(NC(=O)N2C[C@@H](N)C[C@H]2C(=O)NCC(O)c2ccccc2)c2ccccc21 (stereo partly drawn) [Example 82, (2S,4S)-4-Amino-pyrrolidine-1,2-dicarboxylic acid 1-[(1-carbamoyl-1H-indol-3-yl)-amide] 2-[(2-hydroxy-2-phenyl-ethyl)-amide]] | 24.8
4 | NC(=O)n1cc(NC(=O)N2C[C@@H](N)C[C@H]2C(=O)N[C@@H]2C[C@H]2c2ccccc2)c2ccccc21 [Example 83] | 2.25
5 | C[C@@H](CNC(=O)[C@@H]1C[C@H](N)CN1C(=O)Nc1cn(C(N)=O)c2ccccc12)c1ccccc1 [Example 84, (2S,4S)-4-Amino-pyrrolidine-1,2-dicarboxylic acid 1-[(1-carbamoyl-1H-indol-3-yl)-amide] 2-[((R)-2-phenyl-propyl)-amide]] | 6
6 | C[C@H](CNC(=O)[C@@H]1C[C@H](N)CN1C(=O)Nc1cn(C(N)=O)c2ccccc12)c1ccccc1 [Example 85, (2S,4S)-4-Amino-pyrrolidine-1,2-dicarboxylic acid 1-[(1-carbamoyl-1H-indol-3-yl)-amide] 2-[((S)-2-phenyl-propyl)-amide]] | 11.3
7 | NC(=O)n1cc(NC(=O)N2C[C@@H](N)C[C@H]2C(=O)NCCc2cccc(Cl)c2)c2ccccc21 [Example 86, (2S,4S)-4-Amino-pyrrolidine-1,2-dicarboxylic acid 1-[(1-carbamoyl-1H-indol-3-yl)-amide] 2-{[2-(3-chloro-phenyl)-ethyl]-amide}] | 14.3
8 | NC(=O)n1cc(NC(=O)N2C[C@@H](N)C[C@H]2C(=O)NCCc2ccccc2Cl)c2ccccc21 [Example 87, (2S,4S)-4-Amino-pyrrolidine-1,2-dicarboxylic acid 1-[(1-carbamoyl-1Hindol-3-yl)-amide] 2-{[2-(2-chloro-phenyl)-ethyl]-amide}] | 4.65
9 | NC(=O)n1cc(NC(=O)N2C[C@@H](N)C[C@H]2C(=O)NCCc2ccccc2F)c2ccccc21 [Example 88, (2S,4S)-4-Amino-pyrrolidine-1,2-dicarboxylic acid 1-[(1-carbamoyl-1Hindol-3-yl)-amide] 2-{[2-(2-fluoro-phenyl)-ethyl]-amide}] | 6.8
10 | NC(=O)n1cc(NC(=O)N2C[C@@H](N)C[C@H]2C(=O)NCCc2cccc(F)c2)c2ccccc21 [Example 89, (2S,4S)-4-Amino-pyrrolidine-1,2-dicarboxylic acid 1-[(1-carbamoyl-1Hindol-3-yl)-amide] 2-{[2-(3-fluoro-phenyl)-ethyl]-amide}] | 7.7
11 | NC(=O)n1cc(NC(=O)N2C[C@@H](N)C[C@H]2C(=O)NCCc2cc(F)cc(Cl)c2)c2ccccc21 [Example 90, (2S,4S)-4-Amino-pyrrolidine-1,2-dicarboxylic acid 1-[(1-carbamoyl-1H-indol-3-yl)-amide] 2-{[2-(3-chloro-5-fluoro-phenyl)-ethyl]-amide}] | 1.15
12 | CC[C@H](C)[C@H](NC(=O)[C@@H]1C[C@H](N)CN1C(=O)Nc1cn(C(N)=O)c2ccccc12)C(=O)OC [Example 92, (2S,3S)-2-{[(2S,4S)-4-Amino-1-(1-carbamoyl-1H-indol-3-ylcarbamoyl)-pyrrolidine-2-carbonyl]-amino}-3-methyl-pentanoic acid methyl ester] | 8.65
13 | CCC[C@H](NC(=O)[C@@H]1C[C@H](N)CN1C(=O)Nc1cn(C(N)=O)c2ccccc12)C(=O)OC [Example 93, (S)-2-{[(2S,4S)-4-Amino-1-(1-carbamoyl-1H-indol-3-ylcarbamoyl)-pyrrolidine-2-carbonyl]-amino}-pentanoic acid methyl ester] | 4
14 | COC(=O)[C@H](CC(C)C)NC(=O)[C@@H]1C[C@H](N)CN1C(=O)Nc1cn(C(N)=O)c2ccccc12 [Example 95, (S)-2-{[(2S,4S)-4-Amino-1-(1-carbamoyl-1H-indol-3-ylcarbamoyl)-pyrrolidine-2-carbonyl]-amino}-4-methyl-pentanoic acid methyl ester] | 1.35
15 | COC(=O)[C@H](COC(C)(C)C)NC(=O)[C@@H]1C[C@H](N)CN1C(=O)Nc1cn(C(N)=O)c2ccccc12 [Example 96, (S)-2-{[(2S,4S)-4-Amino-1-(1-carbamoyl-1H-indol-3-ylcarbamoyl)-pyrrolidine-2-carbonyl]-amino}-3-tert-butoxy-propionic acid methyl ester] | 8.05
16 | COC(=O)[C@H](Cc1ccccc1)NC(=O)[C@@H]1C[C@H](N)CN1C(=O)Nc1cn(C(N)=O)c2ccccc12 [Example 97, (S)-2-{[(2S,4S)-4-Amino-1-(1-carbamoyl-1H-indol-3-ylcarbamoyl)-pyrrolidine-2-carbonyl]-amino}-3-phenyl-propionic acid methyl ester] | 0.9
17 | COC(=O)[C@@H](NC(=O)[C@@H]1C[C@H](N)CN1C(=O)Nc1cn(C(N)=O)c2ccccc12)c1ccccc1 [Example 98, (S)-{[(2S,4S)-4-Amino-1-(1-carbamoyl-1H-indol-3-ylcarbamoyl)-pyrrolidine-2-carbonyl]-amino}-phenyl-acetic acid methyl ester] | 1.85
18 | CC[C@H](C)[C@H](NC(=O)[C@@H]1C[C@H](N)CN1C(=O)Nc1cn(C(N)=O)c2ccccc12)C(N)=O [Example 99, (2S,4S)-4-Amino-pyrrolidine-1,2-dicarboxylic acid 1-[(1-carbamoyl-1H-indol-3-yl)-amide] 2-[((1S,2S)-1-carbamoyl-2-methyl-butyl)-amide]] | 23.2
19 | CCc1cccc(CNC(=O)[C@@H]2C[C@H](N)CN2C(=O)Nc2cn(C(N)=O)c3ccccc23)c1 [Example 100, (2S,4S)-4-Amino-pyrrolidine-1,2-dicarboxylic acid 1-[(1-carbamoyl-1H-indol-3-yl)-amide] 2-(3-ethyl-benzylamide)] | 17.6
20 | CC[C@H](C)[C@@H](CO)NC(=O)[C@@H]1C[C@H](N)CN1C(=O)Nc1cn(C(N)=O)c2ccccc12 [Example 101, (2S,4S)-4-Amino-pyrrolidine-1,2-dicarboxylic acid 1-[(1-carbamoyl-1H-indol-3-yl)-amide] 2-[((1S,2S)-1-hydroxymethyl-2-methyl-butyl)-amide]] | 15.2
21 | CC(C)c1cccc(NC(=O)[C@@H]2C[C@H](N)CN2C(=O)Nc2cn(C(N)=O)c3ccccc23)c1 [Example 102, (2S,4S)-4-Amino-pyrrolidine-1,2-dicarboxylic acid 1-[(1-carbamoyl-1H-indol-3-yl)-amide]2-[(3-isopropyl-phenyl)-amide]] | 0.567
22 | NC(=O)n1cc(NC(=O)N2C[C@@H](N)C[C@H]2C(=O)Nc2cccc(-c3ccccc3)c2)c2ccccc21 [Example 103, (2S,4S)-4-Amino-pyrrolidine-1,2-dicarboxylic acid 2-biphenyl-3-ylamide 1-[(1-carbamoyl-1H-indol-3-yl)-amide]] | 0.55
23 | NC(=O)n1cc(NC(=O)N2C[C@H](F)C[C@H]2CNS(=O)(=O)c2ccccc2F)c2ccccc21 [Example 104, 3-({(2S,4R)-4-Fluoro-2-[(2-fluoro-benzenesulfonylamino)-methyl]-pyrrolidine-1-carbonyl}-amino)-indole-1-carboxylic acid amide] | 1.49
24 | NC(=O)n1cc(NC(=O)N2C[C@H](F)C[C@H]2CNS(=O)(=O)c2ccccc2)c2ccccc21 [Example 105, 3-{[(2S,4R)-2-(Benzenesulfonylamino-methyl)-4-fluoro-pyrrolidine-1-carbonyl]-amino}-indole-1-carboxylic acid amide] | 0.8
25 | NC(=O)n1cc(NC(=O)N2C[C@H](F)C[C@H]2CNS(=O)(=O)c2cccc(F)c2)c2ccccc21 [Example 106, 3-({(2S,4R)-4-Fluoro-2-[(3-fluoro-benzenesulfonylamino)-methyl]-pyrrolidine-1-carbonyl}-amino)-indole-1-carboxylic acid amide] | 0.7
26 | NC(=O)n1cc(NC(=O)N2C[C@H](F)C[C@H]2CNS(=O)(=O)c2cccc(Cl)c2)c2ccccc21 [Example 107, 3-({(2S,4R)-4-Fluoro-2-[(3-chloro-benzenesulfonylamino)-methyl]-pyrrolidine-1-carbonyl}-amino)-indole-1-carboxylic acid amide] | 0.075
27 | NC(=O)n1cc(NC(=O)N2C[C@H](F)C[C@H]2CNS(=O)(=O)c2cccc(Br)c2)c2ccccc21 [Example 108, 3-({(2S,4R)-4-Fluoro-2-[(3-bromo-benzenesulfonylamino)-methyl]-pyrrolidine-1-carbonyl}-amino)-indole-1-carboxylic acid amide] | 0.055
28 | NC(=O)n1cc(NC(=O)N2C[C@H](F)C[C@H]2CNS(=O)(=O)c2cccc(OC(F)(F)F)c2)c2ccccc21 [Example 109, 3-({(2S,4R)-4-Fluoro-2-[(3-trifluoromethoxy-benzenesulfonylamino)-methyl]-pyrrolidine-1-carbonyl}-amino)-indole-1-carboxylic acid amide] | 2.7
29 | NC(=O)n1cc(NC(=O)N2C[C@H](F)C[C@H]2CNS(=O)(=O)c2cccc(Cl)c2F)c2ccccc21 [Example 110, 3-({(2S,4R)-2-[(3-Chloro-2-fluoro-benzenesulfonylamino)-methyl]-4-fluoro-pyrrolidine-1-carbonyl}-amino)-indole-1-carboxylic acid amide] | 0.02
30 | NC(=O)n1cc(NC(=O)N2C[C@H](F)C[C@H]2CNS(=O)(=O)c2ccc(Cl)s2)c2ccccc21 [Example 111, 3-({(2S,4R)-2-[(5-Chloro-thiophene-2-sulfonylamino)-methyl]-4-fluoro-pyrrolidine-1-carbonyl}-amino)-indole-1-carboxylic acid amide] | 0.06

From patent publication US9085555B2, “Complement pathway modulators and uses thereof” (priority 2011, dated 2015)
